Source: PubChem BioAssay (NCI)
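Abbreviation: GI50, concentration required for 50% inhibition of growth. TGI marks complete inhibition of growth.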

Legend:
Test in all cases: NCI tumour cell line growth inhibition, 384-well format
[1] = test system: 786-0 renal
[2] = test system: A498 renal
[3] = test system: A549 NSCLC
[4] = test system: ACHN renal
[5] = test system: BT-549 breast
[6] = test system: CAKI-1 renal
[7] = test system: CCRF-CEM leukemia
[8] = test system: COLO 205 colon
[9] = test system: EKVX NSCLC
[10] = test system: HCC-2998 colon
[11] = test system: HCT-116 colon
[12] = test system: HCT-15 colon
[13] = test system: HL-60(TB) leukemia
[14] = test system: HOP-62 NSCLC
[15] = test system: HOP-92 NSCLC
[16] = test system: HS 578T breast
[17] = test system: HT29 colon
[18] = test system: IGROV1 ovarian
[19] = test system: K-562 leukemia
[20] = test system: KM12 colon
[21] = test system: LOX IMVI melanoma
[22] = test system: M14 melanoma
[23] = test system: MALME-3M melanoma
[24] = test system: MCF7 breast
[25] = test system: MDA-MB-231 breast
[26] = test system: MDA-MB-435 melanoma
[27] = test system: MDA-MB-468 breast
[28] = test system: MOLT-4 leukemia
[29] = test system: NCI-H226 lung
[30] = test system: NCI-H23 lung
[31] = test system: NCI-H322M lung
[32] = test system: NCI-H460 NSCLC
[33] = test system: NCI-H522 lung
[34] = test system: NCI/ADR-RES ovarian
[35] = test system: OVCAR-3 ovarian
[36] = test system: OVCAR-4 ovarian
[37] = test system: OVCAR-5 ovarian
[38] = test system: OVCAR-8 ovarian
[39] = test system: PC-3 prostate
[40] = test system: RPMI-8226 leukemia
[41] = test system: RXF 393 renal
[42] = test system: SF-268 CNS
[43] = test system: SF-295 CNS
[44] = test system: SF-539 CNS
[45] = test system: SK-MEL-2 melanoma
[46] = test system: SK-MEL-28 melanoma
[47] = test system: SK-MEL-5 melanoma
[48] = test system: SK-OV-3 ovarian
[49] = test system: SN12C renal
[50] = test system: SNB-19 CNS
[51] = test system: SNB-75 CNS
[52] = test system: SR leukemia
[53] = test system: SW-620 colon
[54] = test system: TK-10 renal
[55] = test system: U251 glioblastoma
[56] = test system: UACC-257 melanoma
[57] = test system: UACC-62 melanoma
[58] = test system: UO-31 renal

C=CC(=O)Nc1cccc(C)c1Nc1ncc2cc(-c3c(Cl)c(OC)cc(OC)c3Cl)ccc2n1
GI50 [1]: 1.29 µM | TGI [1]: 5.33 µM | GI50 [2]: 0.614 µM | TGI [2]: 2.03 µM | GI50 [3]: 2.12 µM | TGI [3]: 7.94 µM | GI50 [4]: 2.93 µM | TGI [4]: 23.7 µM | GI50 [5]: 0.843 µM | TGI [5]: 2.44 µM | GI50 [6]: 2.06 µM | TGI [6]: 13.6 µM | GI50 [7]: 1.34 µM | TGI [7]: 2.65 µM | GI50 [8]: 2.01 µM | TGI [8]: 12.2 µM | GI50 [9]: 1.84 µM | TGI [9]: 4.55 µM | GI50 [10]: 2 µM | TGI [10]: 4.83 µM | GI50 [11]: 1.73 µM | TGI [11]: 3.89 µM | GI50 [12]: 1.94 µM | TGI [12]: 4.93 µM | GI50 [13]: 1.1 µM | TGI [13]: 2.38 µM | GI50 [14]: 0.775 µM | TGI [14]: 2.34 µM | GI50 [15]: 2.25 µM | TGI [15]: 6.44 µM | GI50 [16]: 1.26 µM | TGI [16]: 3.18 µM | GI50 [17]: 2.44 µM | TGI [17]: 9.75 µM | GI50 [18]: 2.76 µM | TGI [18]: 7.89 µM | GI50 [19]: 1.39 µM | TGI [19]: 3.21 µM | GI50 [20]: 1.93 µM | TGI [20]: 5.2 µM | GI50 [21]: 1.38 µM | TGI [21]: 2.74 µM | GI50 [22]: 3.57 µM | TGI [22]: 12.9 µM | GI50 [23]: 2.53 µM | TGI [23]: 9.94 µM | GI50 [24]: 1.37 µM | TGI [24]: > 100 µM | GI50 [25]: 1.89 µM | TGI [25]: 5.64 µM | GI50 [26]: 2.17 µM | TGI [26]: 5.35 µM | GI50 [27]: 0.207 µM | TGI [27]: 1.6 µM | GI50 [28]: 0.736 µM | TGI [28]: 2.13 µM | GI50 [29]: 1.11 µM | TGI [29]: 6.08 µM | GI50 [30]: 1.84 µM | TGI [30]: 5.12 µM | GI50 [31]: 2.63 µM | TGI [31]: 9.02 µM | GI50 [32]: 0.717 µM | TGI [32]: 2.09 µM | GI50 [33]: 1.3 µM | TGI [33]: 3.01 µM | GI50 [34]: 2.03 µM | TGI [34]: 4.95 µM | GI50 [35]: 1.1 µM | TGI [35]: 2.94 µM | GI50 [36]: 2.78 µM | TGI [36]: 14.3 µM | GI50 [37]: 4.44 µM | TGI [37]: > 100 µM | GI50 [38]: 1.48 µM | TGI [38]: 3 µM | GI50 [39]: 1.01 µM | TGI [39]: 2.6 µM | GI50 [40]: 0.276 µM | TGI [40]: 1.26 µM | GI50 [41]: 0.573 µM | TGI [41]: 1.97 µM | GI50 [42]: 1.55 µM | TGI [42]: 3.81 µM | GI50 [43]: 2.77 µM | TGI [43]: 10.5 µM | GI50 [44]: 0.615 µM | TGI [44]: 1.93 µM | GI50 [45]: 0.894 µM | TGI [45]: 2.2 µM | GI50 [46]: 2.59 µM | TGI [46]: 8.3 µM | GI50 [47]: 1.46 µM | TGI [47]: 3.38 µM | GI50 [48]: 1.69 µM | TGI [48]: 17 µM | GI50 [49]: 2.33 µM | TGI [49]: 7.56 µM | GI50 [50]: 2 µM | TGI [50]: 7.72 µM | GI50 [51]: 1.12 µM | TGI [51]: 3.8 µM | GI50 [52]: 0.348 µM | TGI [52]: 1.54 µM | GI50 [53]: 2.05 µM | TGI [53]: 6.31 µM | GI50 [54]: 1.98 µM | TGI [54]: 5.92 µM | GI50 [55]: 1.52 µM | TGI [55]: 3.74 µM | GI50 [56]: 1.18 µM | TGI [56]: 3.35 µM | GI50 [57]: 1.75 µM | TGI [57]: 4.9 µM | GI50 [58]: 2.23 µM | TGI [58]: 6.74 µM
